This is an account of results in patent US10035991B2, “Non-transgenic herbicide resistant plants” (priority 1999, dated 2018).

Experiment [1] deals with wild-type EPSPS from E. coli (Escherichia coli, UniProt P0A6D3). Conditions: read-out: apparent Km for PEP; cited from earlier work.
Experiment [2] has as its system SA4247 Salmonella typhi cells expressing mutant Arabidopsis thaliana EPSPS. Kind of experiment: Glyphosate resistance assay (growth by optical density at 600 nm). Type of experiment: cell-based. Conditions: 17 mM or 0 mM glyphosate, liquid M9 medium, OD 600 nm every hour for seven hours, compared to wild-type cells (FIG. 6).
Protocol: Electrocompetent cells of SA4247, a LacZ—Salmonella typhi strain, were prepared according to well known procedures (see Current Protocols in Molecular Biology, (Wiley and Sons, Inc.)). 30 μl of SA4247 competent cells were electroporated with 20 ng of each plasmid DNA encoding Arabidopsis wild-type and mutant EPSPS proteins, Bacillus wild-type EPSPS, along with a mock transfection as a control. The settings for electroporation were 25 μF, 2.5 KV and 200 ohms. After electroporation, the cells were transferred into 15 mls culture tube and supplemented with 970 μl of SOC medium. The cultures were incubated for 1½ hours at 37° C. at 225 rpm. 501 of each culture were plated onto LB plates containing 17 μg/ml chloramphenicol (in duplicates) and incubated overnight at 37° C. On the following day, 5 colonies of each plate were picked and transferred onto M9 plates and incubated overnight at 37° C.
Colonies from the overnight incubation on solid M9 were inoculated into 4 ml of liquid M9 medium and grown overnight at 37° C. On the following day, 25 ml of liquid M9 medium containing chloramphenicol, IPTG and 17 mM or 0 mM Glyphosate (Aldrich, 33775-7) were inoculated with 1-2 mls of each overnight culture (in duplicates), the starting OD (at 600 nm) was measured and all the cultures were normalized to start at the same OD. An OD measurement was taken every hour for seven hours. […]

wild-type EPSPS from E. coli, sequence (P0A6D3 whole entry): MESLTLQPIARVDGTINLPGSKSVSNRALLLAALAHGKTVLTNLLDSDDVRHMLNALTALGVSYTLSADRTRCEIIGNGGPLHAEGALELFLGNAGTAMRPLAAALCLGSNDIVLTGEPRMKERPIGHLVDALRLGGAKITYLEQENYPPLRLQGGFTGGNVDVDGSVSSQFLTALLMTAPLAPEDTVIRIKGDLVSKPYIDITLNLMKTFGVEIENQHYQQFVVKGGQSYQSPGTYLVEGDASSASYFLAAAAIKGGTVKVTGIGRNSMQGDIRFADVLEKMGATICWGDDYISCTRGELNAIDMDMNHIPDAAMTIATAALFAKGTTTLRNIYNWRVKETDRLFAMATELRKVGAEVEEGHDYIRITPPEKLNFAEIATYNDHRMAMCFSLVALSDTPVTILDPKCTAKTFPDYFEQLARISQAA

In general, Km refers to the substrate concentration at which the rate is half of its maximum. As for `C=C(OP(=O)(O)O)C(=O)O` [PEP, phosphoenolpyruvic acid], the Michaelis constant (Km) in experiment [1] was 10 µM.

On to `O=C(O)CNCP(=O)(O)O` [glyphosate, N-phosphonomethylglycine], for which the “growth rate of cells containing a mutation in the EPSPS gene” value in experiment [2] is “substantially similar growth rate in the absence or presence of glyphosate”.
